Consider 37 compounds from patent publication US6413948B1, “Pharmaceutical compositions and methods of effecting a neuronal activity in an animal using naaladase inhibitors” (Guilford Pharmaceuticals Inc., priority 1996, dated 2002).

Experiment [1] concerns the target T1, NAALADase (UniProt P70627).
T1 construct: Ki; other: compared with 2-(phosphonomethyl)pentanedioic acid
Description: In vitro inhibition of NAALADase activity. The conditions noted are these: for Ki: [3H]Glu liberated from [3H]NAAG, synaptosomal protein, 15 minutes at 37° C.; for NAALADase inhibiting activity (comparison in words): compared with 2-(phosphonomethyl)pentanedioic acid. The format is biochemical. On the procedure: Various compounds of formula I were tested for in vitro inhibition of NAALADase activity.
Substrate and product were resolved by anion-exchange liquid chromatography. […] Quisqualate (100 μM) was included in parallel assay tubes to confirm the specificity of the measurements.

In experiment [2] the test system is cortical cell cultures. Description: In vitro toxicity of NAAG. In kind it is cell-based, rats. The conditions noted are these: 20 minutes. How it is done:
See TABLE VII for the Dissociated Culture Protocol as used herein. […] Experiments are performed after 21 days in cultures.
At the end of exposure, the cells are washed once with HEPES buffered saline solution and then replaced with serum free modified Earle's basal medium. The cultures are then returned to the CO2 incubator for 24 hour recovery.
This control measurement is subtracted from each experimental point.

The test system of experiment [3] is NAALADase. The conditions noted are these: NAAG as substrate of NAALADase; cited from earlier work.
Experiment [4] relates to cortical cell cultures. Briefly: In vitro assay of NAALADase inhibitors on ischemia (potassium cyanide and 2-deoxyglucose, LDH release). The format is cell-based, rats. The conditions noted are these: Rattus norvegicus, 1 h, read-out: EC50 (concentration required to cause a 50% reduction in glutamate toxicity following an ischemic insult). Background: LDH in the medium is a marker of cell lysis.
Description: The methods for this assay are described in detail below.
Dissociated cortical cell cultures are prepared using the papain-dissociation method of Heuttner and Baughman (1986) as modified by Murphy and Baraban (1990). […] Fetuses of embryonic day 17 are removed from timed pregnancy rats (Harlan Sprague Dawley). The cortex is rapidly dissected out in Dulbecco's phosphate-buffered saline, stripped of meninges, and incubated in a papain solution for 15 minutes at 37° C. The tissue is then mechanically triturated and pelleted at 500 g (1000-2000 rpm on swinging bucket Beckman). The pellet is resuspended in a DNAase solution, triturated with a 10 ml pipette ×15-20, layered over a “10×10” solution containing albumin and trypsin inhibitor (see TABLE VII for an example of a “10×10” solution), repelleted, and resuspended in a plating medium containing 10% fetal bovine serum (HyClone A-1111-L), 5% heat-inactivated Equine serum (HyClone A-3311-L), and 84% modified Earle's basal medium (MEM) (Gibco 51200-020) with high glucose (4.5 g/L), and 1 g/L NaHCO3. Each 24-well plate is pretreated with poly-D-lysine (0.5 ml/well of 10 μg/ml) for 1 h and rinsed with water before plating. Cultures are plated at 2.5×10^6 cells/ml with each well of a 24 well plate receiving 500 μl/well. Alternatively, 35 mm dishes can be plated at 2 ml/dish, 6 well plates at 2 ml/well, or 12 well plates at 1 ml/well. After plating, 50% of the medium is changed every 3-4 days with growth serum containing 5% heat-inactivated Equine serum (HyClone A3111-L), 95% modified Earle's basal medium (MEM)(Gibco 51200-020), and 1% L-Glutamine (Gibco 25030-081). Experiments are performed after 21 days in cultures. Cultures are maintained in a 5% CO2 atmosphere at 37° C.
Twenty-one to twenty-four days following the initial cortical cell plating, the experiment is performed. The cultures are washed three times in HEPES buffered saline solution containing no phosphate. […] At the end of 24 hours, the cultures are analyzed for release of the cytosolic enzyme lactate dehydrogenase (LDH), a standard measure of cell lysis. LDH measurements are performed according to the method of Koh and Choi, J. Neuroscience Methods (1987).
Release of the cytosolic enzyme lactate dehydrogenase (LDH), a standard measure of cell lysis, is used to quantify injury (Koh and Choi, 1987). LDH-activity measurements are normalized to control for variability between culture preparations (Koh and Choi, 1987). […] This control measurement is subtracted from each experimental point. […] Only main effects of NAALADase inhibitors are considered; interactions between dose and condition are not examined statistically.

For experiment [5], the system named is spinal cord organotypic cultures. Description: Spinal cord culture model of ALS (THA toxicity, ChAT activity). The conditions noted are these: Table XII; THA without inhibitor. The format is cell-based, rats. How it is done:
Organotypic cultures were prepared from lumbar spinal cord of 8 day old rats, as described by Rothstein et al., J. Neurochem., Vol. 65, No. 2 (1995), and Rothstein et al., Proc. Natl. Acad. Sci. USA, Vol. 90, pp. 6591-6595 (July 1993). In brief, lumbar spinal cords were removed and sliced into 300 […] sections, and five slices were placed on Millipore CM semipermeable 30-mm-diameter membrane inserts. The inserts were placed on 1 ml of culture medium in 35-mm-diameter culture wells. Culture medium consisted of 50% minimal essential medium and phosphate-free HEPES (25 mM), 25% heat-inactivated horse serum, and 25% Hanks' balanced salt solution (GIBCO) supplemented with D-glucose (25.6 mg/ml) and glutamine (2 mM), at a final pH of 7.2. Antibiotic and antifungal agents were not used. Cultures were incubated at 37° C. in 5% CO2 containing humidified environment (Forma Scientific). Culture medium, along with any added pharmacological agents, was changed twice weekly.
Drugs were incubated for an additional 13 to 20 days with the 100 μM THA. At the end of this period, cultures were collected assayed for ChAT activity as described below.
To determine choline acetyltransferase (ChAT) activity, the spinal cord tissues in each dish (five slices) were pooled and frozen (−75° C.) until assay. ChAT activity was measured radiometrically by described methods using [^3H] acetyl-CoA (Amersham; Fonnum, 1975). Protein content of tissue homogenate was determined by a Coomassi Protein Assay kit (Pierce, Rockford, Ill.).

Experiment [6] relates to MPTP lesioned mice. Description: In vivo assay on Parkinson's Disease (MPTP lesioned mice, TH immunostaining). Further details: species or system CD1 white mice. How it is done:
MPTP lesioning of dopaminergic neurons in mice was used as an animal model of Parkinson's Disease, as described by Steiner, Proc. Natl. Acad. Sci., Vol. 94, pp. 2019-2024 (March 1997). In brief, four week old male CD1 white mice were dosed IP with 30 mg/kg of MPTP for 5 days. […] At 18 days following MPTP treatment, the mice were sacrificed and their brains were removed and sectioned. Immunostaining was performed on saggital and coronal brain sections using anti-tyrosine hydroxylase (TH) antibodies to quantitate survival and recovery of dopaminergic neurons.

Where [7] appears, read: treated during ischemic insult and for one hour thereafter.

SMILES strings stand for the structures. Like-named read-outs stand apart in the source and are kept apart here. Residues, ends and D or L forms follow the SMILES beside them.

As usually defined, the Ki is the equilibrium dissociation constant of an inhibitor or competing ligand from its target. Usually Km stands for the substrate concentration at which the rate is half of its maximum.

Take `O=C(O)CCC(CP(=O)(O)c1ccc(F)cc1)C(=O)O` (centres unmarked): the Ki in experiment [1] amounted to 532 nM. `O=C(O)CCC(CP(=O)(O)CCc1ccccc1)C(=O)O` (centres unmarked) [drawing 23]: the Ki in experiment [1] turned out to be 148 nM.

For the compound `Cc1cccc(P(=O)(O)CC(CCC(=O)O)C(=O)O)c1` (centres unmarked), in experiment [1], the inhibition constant (Ki) was 180 nM. On to `CC(=O)N[C@@H](CC(=O)O)C(=O)N[C@@H](CCC(=O)O)C(=O)O` [NAAG, N-acetyl-aspartyl-glutamate] (Ac-Asp-Glu-OH), for which the “% Toxicity” value in experiment [2] (NAAG 3 μM) is on record as 3.51 (n = 1) %; in experiment [2] (NAAG 10 μM), 4.30 ± 3.12 (n = 3) %; in experiment [2] (NAAG 30 μM), 11.40 ± 6.17 (n = 3) %; in experiment [2] (NAAG 100 μM), 12.66 ± 5.50 (n = 3) %; in experiment [2] (NAAG 300 μM) it was 13.50 ± 4.0 (n = 3) %; in experiment [2] (NAAG 1 mM), 21.46 ± 4.20 (n = 3) %. Moreover, the “% Toxicity” value in experiment [2] (NAAG 3 mM) is 45.11 ± 4.96 (n = 3) %. Besides, the Km in experiment [3] was 0.54 µM. On to `O=C(O)CCC(CP(=O)(O)CCC(=O)O)C(=O)O` (centres unmarked) [2-[[(2-carboxyethyl)hydroxyphosphinyl]methyl]pentanedioic acid], for which, in experiment [1], the Ki was found to be 1.89 ± 0.19 nM and the “NAALADase inhibiting activity (comparison in words)” value is given as “lower NAALADase inhibiting activity”.

As to `CP(=O)(O)CC(CCC(=O)O)C(=O)O` (centres unmarked), the Ki in experiment [1] is 1100 nM. As for `COc1ccc(CP(=O)(O)CC(CCC(=O)O)C(=O)O)cc1` (centres unmarked) [drawing 51], the EC50 in experiment [4] (setting [7]) was found to be 1670 nM.

Take `O=C(O)CCC(CP(=O)(O)Cc1ccccc1C(F)(F)F)C(=O)O` (centres unmarked): the Ki in experiment [1] was determined as 92 nM. On the same count and under the same terms, the same measure for `O=C(O)CCC(CP(=O)(O)CCCc1ccccc1)C(=O)O` (centres unmarked) [drawing 24]: 232 nM. The same measure, in the same setting: the same measure for `O=C(O)CCC(CP(=O)(O)c1ccccc1)C(=O)O` (centres unmarked) [drawing 19]: 35.8 nM. As to `O=C(O)CCC(CP(=O)(O)O)C(=O)O` (centres unmarked) [drawing 39], the EC50 in experiment [4] is 0.67 nM. With `Cc1ccc(CP(=O)(O)CC(CCC(=O)O)C(=O)O)cc1` (centres unmarked) [drawing 46], the EC50 in experiment [4] (setting [7]) came out at 37 nM. For the compound `O=C(O)CC(CP(=O)(O)O)C(=O)O` (centres unmarked) [2-(phosphonomethyl)succinic acid], in experiment [1], the Ki stood at 700 ± 67.3 nM and the “NAALADase inhibiting activity (comparison in words)” value is given as “much lower NAALADase inhibiting activity”.

For the compound `Cc1ccc(P(=O)(O)CC(CCC(=O)O)C(=O)O)cc1` (centres unmarked), in experiment [1], the Ki is 204 nM. Turning to `O=C(O)CCC(CP(=O)(O)C(O)c1ccccc1)C(=O)O` (centres unmarked) [drawing 44], the EC50 in experiment [4] (setting [7]) was found to be 767 nM. Turning to `O=C(O)CCC(CP(=O)(O)Cc1ccccc1)C(=O)O` (centres unmarked) [drawing 18], the Ki in experiment [1] was 34.1 nM. As for `O=C(O)CCC(CP(=O)(O)Cc1c(F)c(F)c(F)c(F)c1F)C(=O)O` (centres unmarked) [drawing 48], the EC50 in experiment [4] (setting [7]) is 2 nM.

Take `O=C(O)CCC(CP(=O)(O)Cc1ccc(O)cc1)C(=O)O` (centres unmarked): in experiment [1], the Ki turned out to be 117 nM. On the same count and under the same terms, next, `O=C(O)CCC(CP(=O)(O)Cc1c(F)c(F)c(F)c(F)c1F)C(=O)O` (centres unmarked) [drawing 31]: 22.7 nM. Turning to `O=C(O)CCC(CP(=O)(O)CCCc1ccccc1)C(=O)O` (centres unmarked) [drawing 50], in experiment [4] (setting [7]), the EC50 was 4320 nM. Turning to `O=C(O)C(CCc1ccccc1)CP(=O)(O)O` (centres unmarked) [drawing 33], in experiment [1], the inhibition constant Ki stood at 199 nM.

Turning to `O=C(O)CCC(CP(=O)(O)Cc1ccc(F)cc1)C(=O)O` (centres unmarked) [drawing 28], in experiment [1], the inhibition constant (Ki) was determined as 70 nM. `O=C(O)CCC(CP(=O)(O)Cc1cccc(C(F)(F)F)c1)C(=O)O` (centres unmarked) [drawing 41]: the EC50 in experiment [4] (setting [7]) is 112 nM. `O=C(O)CCCC(CP(=O)(O)O)C(=O)O` (centres unmarked): the Ki in experiment [1] was 185 nM.

Consider `O=C(O)CCC(CP(=O)(O)CCc1ccccc1)C(=O)O` (centres unmarked) [drawing 49], for which, in experiment [4] (setting [7]), the EC50 turned out to be 834 nM. Consider `Cc1ccc(CP(=O)(O)CC(CCC(=O)O)C(=O)O)cc1` (centres unmarked) [drawing 27], for which, in experiment [1], the Ki is 68 nM. As for `O=C(O)C(CCc1ccccc1)CP(=O)(O)O` (centres unmarked) [drawing 40], the EC50 in experiment [4] (setting [7]) turned out to be 373 nM. In the case of `O=C(O)CCC(CP(=O)(O)Cc1cccc(C(F)(F)F)c1)C(=O)O` (centres unmarked) [drawing 36], the Ki in experiment [1] worked out at 22.5 nM. With `N[C@H](C(=O)O)[C@H](O)C(=O)O` [THA, threohydroxyaspartate, reference compound], the “ChAT Activity (% of Control)” value in experiment [5] is 0 % of Control.

On to `O=C(O)CCC(CP(=O)(O)Cc1ccccc1F)C(=O)O` (centres unmarked), for which, in experiment [1], the Ki turned out to be 145 nM.

For `O=C(O)CCC(CP(=O)(O)Cc1ccccc1)C(=O)O` (centres unmarked) [drawing 42], in experiment [4] (setting [7]), the EC50 was 132 nM. Still for that read-out and setting: next, `O=C(O)CCC(CP(=O)(O)Cc1ccc(F)cc1)C(=O)O` (centres unmarked) [drawing 47]: 79 nM; `O=C(O)CCC(CP(=O)(O)c1ccccc1)C(=O)O` (centres unmarked) [drawing 43]: 100 nM. For the compound `CCCCP(=O)(O)CC(CCC(=O)O)C(=O)O` (centres unmarked) [drawing 21], the Ki in experiment [1] was found to be 113 nM. Still for that read-out and setting: the same measure for `O=C(O)CCC(CP(=O)(O)Cc1ccc(OCc2ccccc2)cc1)C(=O)O` (centres unmarked): 177 nM. As for `CN1CC=C(c2ccccc2)CC1` [MPTP, reference compound], the “loss of functional dopaminergic terminals as compared to non-lesioned mice” value in experiment [6] (MPTP and vehicle) is “approximately 68%”. Further, in experiment [6] (MPTP/vehicle, MPTP 30 mg/kg IP for 5 days), the “Percent Strial TH Innervation Density (mean ± SEM)” value was 7.82 ± 0.68%. With `CCCCP(=O)(O)CC(CCC(=O)O)C(=O)O` (centres unmarked) [drawing 45], the EC50 in experiment [4] (setting [7]) stood at 794 nM.
